This is an account of results in patent US20250296938A1, “Compounds that Interact with the Ras Superfamily for the Treatment of Cancers, Inflammatory Diseases, Rasopathies, and Fibrotic Disease” (SHY Therapeutics, LLC, priority 2018, published 2025).

As a reminder, the IC50 is the concentration at which inhibition is half-maximal. Low readings indicate greater potency, high ones weaker potency.

The test system of the first experiment is BxPC3 pancreatic cancer cell line. The experiment can be described thus: Cell proliferation assay (DAPI). The note with it: Homo sapiens, BXPC-3. The class given is cell-based. In outline: (§1)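 NCI-H1975 cells in RPMI; PANC-1 and MIA PaCa-2 in DMEM-high glucose; BxPC3 in RPMI; all with 10% FBS. Compounds at 10 µM final (or serial dilutions for IC50), 0.3% DMSO, 2–4 days at 37 °C. Fixed, DAPI-stained, fluorescence read at 358/461 nm to give proliferation inhibition.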
Turning to `COCC(C)Nc1nc(-c2nccn2C)nc2sc(-c3ccn(C)n3)c(-c3ccccc3)c12` (centres unmarked) [drawing 544], the half-inhibitory concentration (IC50) is 750 to 1000 nM.
Same read-out and setting: for `COC1CCN(c2nc(-c3nccn3C)nc3sc(-c4ccn(C)n4)c(-c4ccccc4)c23)C1` (centres unmarked) [drawing 545] the value was > 1000 nM; for `Cn1ccc(-c2sc3nc(-c4nccn4C)nc(NCC4CCOC4)c3c2-c2ccccc2)n1` (centres unmarked) [drawing 547], > 1000 nM; for `CO[C@H]1CCC(Nc2nc(-c3nccn3C)nc3sc(-c4ccn(C)n4)c(-c4ccccc4)c23)C1` (some centres unmarked) [drawing 548], 500 to 749 nM.
Compound `CO[C@@H]1CCC(Nc2nc(-c3nccn3C)nc3sc(-c4ccn(C)n4)c(-c4ccccc4)c23)C1` (some centres unmarked) [drawing 549] came in with an IC50 of 750 to 1000 nM.
`COCC1CCN(c2nc(-c3nccn3C)nc3sc(-c4ccn(C)n4)c(-c4ccccc4)c23)C1` (centres unmarked) [drawing 550] had an IC50 of 750 to 1000 nM.
The compound `COCCNc1nc(-c2nccn2C)nc2sc(-c3cccc(OC)c3Cl)c(-c3ccc(OC)cc3)c12` [drawing 562] displayed a half-maximal inhibitory concentration (IC50) of 750 to 1000 nM.

Another experiment has as its system MIA PaCa-2 pancreatic cancer cell line. As to the kind of experiment: Cell proliferation assay (DAPI). The class given is cell-based. The note with it: Homo sapiens, MIA PaCa-2. In outline: as §1
Take `COCC(C)Nc1nc(-c2nccn2C)nc2sc(-c3ccn(C)n3)c(-c3ccccc3)c12` (centres unmarked) [drawing 544]: the 50% inhibitory concentration (IC50) is > 1000 nM.
Same read-out and setting: the value for `COC1CCN(c2nc(-c3nccn3C)nc3sc(-c4ccn(C)n4)c(-c4ccccc4)c23)C1` (centres unmarked) [drawing 545] was > 1000 nM.
The same measure, in the same setting: for `Cn1ccc(-c2sc3nc(-c4nccn4C)nc(NCC4CCOC4)c3c2-c2ccccc2)n1` (centres unmarked) [drawing 547] the value was > 1000 nM; for `CO[C@H]1CCC(Nc2nc(-c3nccn3C)nc3sc(-c4ccn(C)n4)c(-c4ccccc4)c23)C1` (some centres unmarked) [drawing 548], 500 to 749 nM; for `CO[C@@H]1CCC(Nc2nc(-c3nccn3C)nc3sc(-c4ccn(C)n4)c(-c4ccccc4)c23)C1` (some centres unmarked) [drawing 549], 750 to 1000 nM.
Same read-out and setting: the value for `COCC1CCN(c2nc(-c3nccn3C)nc3sc(-c4ccn(C)n4)c(-c4ccccc4)c23)C1` (centres unmarked) [drawing 550] was 750 to 1000 nM.
For the compound `COCCNc1nc(-c2nccn2C)nc2sc(-c3cccc(OC)c3Cl)c(-c3ccc(OC)cc3)c12` [drawing 562], the IC50 is 750 to 1000 nM.
Take `COCCNc1nc(-c2cn(C)cn2)nc2sc(-c3ccccc3Cl)c(-c3ccc(OC)cc3)c12` [drawing 564]: the concentration for half-maximal inhibition (IC50) is > 1000 nM.
Consider `COCCNc1nc(-c2nccn2C)nc2sc(-c3cccc(OC)c3Cl)c(-c3ccccc3)c12` [drawing 567], for which the half-inhibitory concentration (IC50) lay in the range of 750 to 1000 nM.

The experiment is the same for the next values; noted with them: Homo sapiens; 10 μM, 2-4 days, MIA PaCa-2; read-out: % Inhibition of cell proliferation, MIA PaCa-2 % inh.
`COCC(C)Nc1nc(-c2nccn2C)nc2sc(-c3ccn(C)n3)c(-c3ccccc3)c12` (centres unmarked) [drawing 544]: the inhibition at 10 µM fell in the range of 76 to 100%.
Still for that read-out and setting: the value for `COC1CCN(c2nc(-c3nccn3C)nc3sc(-c4ccn(C)n4)c(-c4ccccc4)c23)C1` (centres unmarked) [drawing 545] was 76 to 100%.
Still for that read-out and setting: the value for `Cn1ccc(-c2sc3nc(-c4nccn4C)nc(NCC4CCOC4)c3c2-c2ccccc2)n1` (centres unmarked) [drawing 547] was 76 to 100%; that for `CO[C@H]1CCC(Nc2nc(-c3nccn3C)nc3sc(-c4ccn(C)n4)c(-c4ccccc4)c23)C1` (some centres unmarked) [drawing 548] was 76 to 100%.
With `CO[C@@H]1CCC(Nc2nc(-c3nccn3C)nc3sc(-c4ccn(C)n4)c(-c4ccccc4)c23)C1` (some centres unmarked) [drawing 549], the inhibition at 10 µM was 76 to 100%.
Same read-out and setting: the value for `COCC1CCN(c2nc(-c3nccn3C)nc3sc(-c4ccn(C)n4)c(-c4ccccc4)c23)C1` (centres unmarked) [drawing 550] was 76 to 100%; that for `COCC(C)Nc1nc(-c2nccn2C)nc2sc(-c3ccccc3Cl)c(-c3cscn3)c12` (centres unmarked) [drawing 556] was 76 to 100%; that for `COCC(C)Nc1nc(-c2nccn2C)nc2sc(-c3cccc(OC)c3)c(-c3cscn3)c12` (centres unmarked) [drawing 558] was 76 to 100%.
Turning to `COCCNc1nc(-c2nccn2C)nc2sc(-c3cccc(OC)c3Cl)c(-c3ccc(OC)cc3)c12` [drawing 562], the inhibition at 10 µM was 76 to 100%.
With `COCCNc1nc(-c2cn(C)cn2)nc2sc(-c3ccccc3Cl)c(-c3ccc(OC)cc3)c12` [drawing 564], the inhibition at 10 µM was in the range of 76 to 100%.
Still for that read-out and setting: the value for `COCCNc1nc(-c2nccn2C)nc2sc(-c3cccc(OC)c3Cl)c(-c3ccccc3)c12` [drawing 567] was 76 to 100%.

The next experiment deals with NCI H1299 non-small-cell lung cancer cell line. The experiment can be described thus: Cell proliferation assay (DAPI). It counts as cell-based. To be noted: Homo sapiens.
`CO[C@H]1CCC(Nc2nc(-c3nccn3C)nc3sc(-c4ccn(C)n4)c(-c4ccccc4)c23)C1` (some centres unmarked) [drawing 548] came in with an IC50 of 750 to 1000 nM.
Still for that read-out and setting: for `CO[C@@H]1CCC(Nc2nc(-c3nccn3C)nc3sc(-c4ccn(C)n4)c(-c4ccccc4)c23)C1` (some centres unmarked) [drawing 549] the value was 750 to 1000 nM; for `COCC1CCN(c2nc(-c3nccn3C)nc3sc(-c4ccn(C)n4)c(-c4ccccc4)c23)C1` (centres unmarked) [drawing 550], > 1000 nM.
For the compound `COCC(C)Nc1nc(-c2nccn2C)nc2sc(-c3ccccc3Cl)c(-c3cscn3)c12` (centres unmarked) [drawing 556], the IC50 was > 1000 nM.
`COCC(C)Nc1nc(-c2nccn2C)nc2sc(-c3cccc(OC)c3)c(-c3cscn3)c12` (centres unmarked) [drawing 558]: the IC50 was > 1000 nM.
The same measure, in the same setting: the value for `COCCNc1nc(-c2nccn2C)nc2sc(-c3cccc(OC)c3Cl)c(-c3ccc(OC)cc3)c12` [drawing 562] was 750 to 1000 nM.

The next experiment concerns NCI H1975 non-small-cell lung cancer cell line. The experiment can be described thus: Cell proliferation assay (DAPI). The note with it: Homo sapiens. It counts as cell-based. In outline:
as §1
Regarding `CO[C@H]1CCC(Nc2nc(-c3nccn3C)nc3sc(-c4ccn(C)n4)c(-c4ccccc4)c23)C1` (some centres unmarked) [drawing 548], the 50% inhibitory concentration (IC50) is 500 to 749 nM.
Same read-out and setting: the value for `CO[C@@H]1CCC(Nc2nc(-c3nccn3C)nc3sc(-c4ccn(C)n4)c(-c4ccccc4)c23)C1` (some centres unmarked) [drawing 549] was 750 to 1000 nM; that for `COCC1CCN(c2nc(-c3nccn3C)nc3sc(-c4ccn(C)n4)c(-c4ccccc4)c23)C1` (centres unmarked) [drawing 550] was > 1000 nM; that for `COCC(C)Nc1nc(-c2nccn2C)nc2sc(-c3ccccc3Cl)c(-c3cscn3)c12` (centres unmarked) [drawing 556] was > 1000 nM.
On the same count and under the same terms, the value for `COCC(C)Nc1nc(-c2nccn2C)nc2sc(-c3cccc(OC)c3)c(-c3cscn3)c12` (centres unmarked) [drawing 558] was > 1000 nM; that for `COCCNc1nc(-c2nccn2C)nc2sc(-c3cccc(OC)c3Cl)c(-c3ccc(OC)cc3)c12` [drawing 562] was 750 to 1000 nM; that for `COCCNc1nc(-c2cn(C)cn2)nc2sc(-c3ccccc3Cl)c(-c3ccc(OC)cc3)c12` [drawing 564] was > 1000 nM.
`COCCNc1nc(-c2nccn2C)nc2sc(-c3cccc(OC)c3Cl)c(-c3ccccc3)c12` [drawing 567] displayed an IC50 of 750 to 1000 nM.

In another experiment the test system is PANC-1 pancreatic cancer cell line. As to the kind of experiment: Cell proliferation assay (DAPI). The class given is cell-based. The note with it: Homo sapiens. In outline: as §1
`COCC(C)Nc1nc(-c2nccn2C)nc2sc(-c3ccn(C)n3)c(-c3ccccc3)c12` (centres unmarked) [drawing 544] displayed an IC50 of 750 to 1000 nM.
Same read-out and setting: for `COC1CCN(c2nc(-c3nccn3C)nc3sc(-c4ccn(C)n4)c(-c4ccccc4)c23)C1` (centres unmarked) [drawing 545] the value was 750 to 1000 nM; for `Cn1ccc(-c2sc3nc(-c4nccn4C)nc(NCC4CCOC4)c3c2-c2ccccc2)n1` (centres unmarked) [drawing 547], > 1000 nM; for `CO[C@H]1CCC(Nc2nc(-c3nccn3C)nc3sc(-c4ccn(C)n4)c(-c4ccccc4)c23)C1` (some centres unmarked) [drawing 548], 500 to 749 nM.
Take `CO[C@@H]1CCC(Nc2nc(-c3nccn3C)nc3sc(-c4ccn(C)n4)c(-c4ccccc4)c23)C1` (some centres unmarked) [drawing 549]: the IC50 was 750 to 1000 nM.
On the same count and under the same terms, for `COCC1CCN(c2nc(-c3nccn3C)nc3sc(-c4ccn(C)n4)c(-c4ccccc4)c23)C1` (centres unmarked) [drawing 550] the value was 500 to 749 nM; for `COCC(C)Nc1nc(-c2nccn2C)nc2sc(-c3cccc(OC)c3)c(-c3cscn3)c12` (centres unmarked) [drawing 558], 750 to 1000 nM.
Still for that read-out and setting: the value for `COCCNc1nc(-c2nccn2C)nc2sc(-c3cccc(OC)c3Cl)c(-c3ccc(OC)cc3)c12` [drawing 562] was 500 to 749 nM.
The same measure, in the same setting: for `COCCNc1nc(-c2nccn2C)nc2sc(-c3cccc(OC)c3Cl)c(-c3ccccc3)c12` [drawing 567] the value was 750 to 1000 nM.
